One experiment relates to T1, Lac A (LacA).
T1 construct: 63 kDa by SDS-PAGE
Briefly: absorbance at […] nm, Lineweaver-Burk. Type of experiment: biochemical, Trichoderma harzianum. As to conditions: 0.1 M sodium citrate, pH 4.5; ABTS 0.025-0.4 mM; O2 co-substrate.

A further experiment relates to T2, Lac B (LacB).
T2 construct: 48 kDa by SDS-PAGE
The experiment in a line: absorbance at […] nm, Lineweaver-Burk. Type of experiment: biochemical, Trichoderma harzianum. As to conditions: 0.1 M sodium citrate, pH 4.5; ABTS 0.025-0.4 mM; O2 co-substrate.

By Km is commonly meant the substrate concentration at which the rate is half of its maximum. Turning to `CCn1c(=NN=c2sc3cc(S(=O)(=O)O)ccc3n2CC)sc2cc(S(=O)(=O)O)ccc21` [ABTS, 2,2ʹ-Azinobis-(3-ethylbenzothiazoline-6-sulfonic acid)], the Michaelis constant (Km) in the experiment on Lac A (LacA) is 100 µM; in the experiment with Lac B (LacB), 64 µM.
